The target of this experiment is T1, LXRβ (Homo sapiens, UniProt P55055).
T1 construct: Co-transfection expression plasmids, comprising full-length LXRα (pCMX-h LXRα[…] or LXRβ (pCMX-hLXRβ)); expressed in transfected cells; host or cells: CV-1 African Green Monkey Kidney Cells
T1 sequence (P55055 1-460): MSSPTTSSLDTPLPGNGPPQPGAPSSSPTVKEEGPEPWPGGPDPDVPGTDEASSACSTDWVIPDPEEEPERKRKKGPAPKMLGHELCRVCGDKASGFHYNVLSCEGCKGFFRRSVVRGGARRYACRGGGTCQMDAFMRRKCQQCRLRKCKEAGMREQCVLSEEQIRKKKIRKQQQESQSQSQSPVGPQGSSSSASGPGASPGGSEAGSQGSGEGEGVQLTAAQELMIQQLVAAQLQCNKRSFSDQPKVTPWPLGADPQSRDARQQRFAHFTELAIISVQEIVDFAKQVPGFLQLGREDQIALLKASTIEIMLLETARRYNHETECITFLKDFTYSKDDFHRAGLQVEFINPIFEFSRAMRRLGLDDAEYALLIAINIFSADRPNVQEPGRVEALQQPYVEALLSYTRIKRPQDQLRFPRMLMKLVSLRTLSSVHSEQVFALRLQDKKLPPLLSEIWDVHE
T1 sequence (P19793 1-462 partner): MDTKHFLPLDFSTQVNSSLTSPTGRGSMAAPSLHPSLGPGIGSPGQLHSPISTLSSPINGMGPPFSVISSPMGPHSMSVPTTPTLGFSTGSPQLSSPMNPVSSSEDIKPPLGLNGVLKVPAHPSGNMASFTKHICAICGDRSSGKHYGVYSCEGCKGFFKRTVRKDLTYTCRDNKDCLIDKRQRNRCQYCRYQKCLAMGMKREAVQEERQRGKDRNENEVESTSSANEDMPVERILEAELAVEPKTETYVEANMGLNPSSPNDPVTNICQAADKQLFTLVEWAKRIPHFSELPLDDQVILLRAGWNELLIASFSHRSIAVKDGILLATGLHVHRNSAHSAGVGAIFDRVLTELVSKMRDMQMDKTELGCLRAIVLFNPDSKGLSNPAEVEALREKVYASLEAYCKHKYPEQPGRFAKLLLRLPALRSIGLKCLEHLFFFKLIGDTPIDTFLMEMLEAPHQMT
Nature of the experiment: Co-transfection assay (LXRE luciferase reporter), LXRβ. The format is cell-based. The note with it: for EC50: CV-1 cells transfected with pCMX-hLXRβ and LXREx1-Tk-Luciferase, 20 hours incubation; for Emax: LXRβ co-transfection, relative to high control 1-(2,4-difluorobenzyl)-2-oxo-6-(4-phenoxyphenyl)-4-(trifluoromethyl)-1,2-dihydropyridine-3-carbonitrile, read-out: % Efficacy. A digest of the protocol:
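Cell-based LXRβ agonism measured as LXRE-luciferase induction in transiently transfected CV-1 cells after 20 h treatment. Potency is the curve-fit EC50; efficacy is expressed as percent of a full-agonist control's maximal response.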
A general note: In a reporter assay the amount or activity of a reporter protein is the signal.

The EC50 is the concentration needed to bring the measured effect to its halfway point. A lower EC50 goes with a more potent agent.

SMILES strings stand for the structures.

Turning to `COc1ncc(-c2oc(C)nc2-c2cc(-c3cc(F)c(CO)c(S(C)(=O)=O)c3)ccc2-n2cc(C(F)(F)F)nc2C)cc1F` [Example 440, (3-fluoro-3′-(5-(5-fluoro-6-methoxypyridin-3-yl)-2-methyloxazol-4-yl)-4′-(2-methyl-4-(trifluoromethyl)-1H-imidazol-1-yl)-5-(methylsulfonyl)biphenyl-4-yl)methanol], the midpoint of the response, the EC50, lay at 214 nM and the Emax turned out to be 75%.

`Cc1nc(C(F)(F)F)cn1-c1ccc(-c2cccc(S(C)(=O)=O)c2)cc1-c1nc(CC(C)C)oc1-c1ccc(OC(F)(F)F)cc1` [Example 562, 2-isobutyl-4-(4-(2-methyl-4-(trifluoromethyl)-1H-imidazol-1-yl)-3′-(methylsulfonyl)-[1,1′-biphenyl]-3-yl)-5-(4-(trifluoromethoxy)phenyl)oxazole]: the EC50 is 34 nM and the Emax is 77%.

In the case of `Cc1nc(-c2cc(-c3cc(F)c(CO)c(S(C)(=O)=O)c3)ccc2-n2cc(C(F)(F)F)nc2C)c(-c2ccccc2OC(F)F)o1` [Example 548, (3′-(5-(2-(difluoromethoxy)phenyl)-2-methyloxazol-4-yl)-3-fluoro-4′-(2-methyl-4-(trifluoromethyl)-1H-imidazol-1-yl)-5-(methylsulfonyl)-[1,1′-biphenyl]-4-yl)methanol], the midpoint of the response, the EC50, lay at 84 nM and the Emax came to 43%.

Turning to `Cc1cc(-c2cc(-c3ccc(CO)c(S(C)(=O)=O)c3)ccc2-n2cc(C(F)(F)F)nc2C)n(-c2ccc3c(c2)OC(F)(F)O3)n1` [Example 300, (3′-(1-(2,2-difluorobenzo[d][1,3]dioxol-5-yl)-3-methyl-1H-pyrazol-5-yl)-4′-(2-methyl-4-(trifluoromethyl)-1H-imidazol-1-yl)-3-(methylsulfonyl)biphenyl-4-yl)methanol], the EC50 came out at 12 nM and the Emax is 61%.

In the case of `Cc1cc(-c2cc(-c3cc(O)c(CF)c(S(C)(=O)=O)c3)ccc2-n2cc(C(F)(F)F)nc2C)n(-c2ccc(OC(F)(F)F)cc2)n1` [Example 303, 4-(fluoromethyl)-3′-(3-methyl-1-(4-(trifluoromethoxy)phenyl)-1H-pyrazol-5-yl)-4′-(2-methyl-4-(trifluoromethyl)-1H-imidazol-1-yl)-5-(methylsulfonyl)-[1,1′-biphenyl]-3-ol], the EC50 was determined as 21 nM and the Emax is 68%.

For the molecule `Cc1nc(-c2cc(-c3cc(F)c(CO)c(S(C)(=O)=O)c3)ccc2-n2cc(C(F)(F)F)nc2C)c(-c2cc(F)cc(F)c2)o1` [Example 448, (3′-(5-(3,5-difluorophenyl)-2-methyloxazol-4-yl)-3-fluoro-4′-(2-methyl-4-(trifluoromethyl)-1H-imidazol-1-yl)-5-(methylsulfonyl)biphenyl-4-yl)methanol], it took 96 nM to reach a half-maximal effect (EC50) and the Emax is 58%.

Consider `CNS(=O)(=O)c1cccc(-c2ccc(-n3cc(C(F)F)nc3C)c(-c3cnnn3Cc3ccc(Cl)cc3)c2)c1` [Example 246, 3′-(1-(4-chlorobenzyl)-1H-1,2,3-triazol-5-yl)-4′-(4-(difluoromethyl)-2-methyl-1H-imidazol-1-yl)-N-methyl-[1,1′-biphenyl]-3-sulfonamide], for which the EC50 turned out to be 475 nM and the Emax was 91%.

As to `Cc1nc(C(F)(F)F)cn1-c1ccc(-c2cc(F)c(CO)c(S(C)(=O)=O)c2)cc1-c1nc(C2CC2)cn1-c1ccc(Cl)cc1` [Example 647, (3′-(1-(4-chlorophenyl)-4-cyclopropyl-1H-imidazol-2-yl)-3-fluoro-4′-(2-methyl-4-(trifluoromethyl)-1H-imidazol-1-yl)-5-(methylsulfonyl)-[1,1′-biphenyl]-4-yl)methanol], the EC50 was 350 nM and the Emax is 49%.

Consider `Cc1cc(-c2cc(-c3ccc(CO)c(S(C)(=O)=O)c3)ccc2-n2cc(C(F)(F)F)nc2C)n(-c2ccc(OC(F)F)cc2)n1` [Example 302, (3′-(1-(4-(difluoromethoxy)phenyl)-3-methyl-1H-pyrazol-5-yl)-4′-(2-methyl-4-(trifluoromethyl)-1H-imidazol-1-yl)-3-(methylsulfonyl)-[1,1′-biphenyl]-4-yl)methanol], for which the EC50 was found to be 25 nM and the Emax was 81%.

For `Cc1nc(-c2cc(-c3cc(F)c(CO)c(S(C)(=O)=O)c3)ccc2-n2cc(C(F)(F)F)nc2C)c(-c2ccc(C(F)(F)F)nc2)o1` [Example 568, (3-fluoro-4′-(2-methyl-4-(trifluoromethyl)-1H-imidazol-1-yl)-3′-(2-methyl-5-(6-(trifluoromethyl)pyridin-3-yl)oxazol-4-yl)-5-(methylsulfonyl)-[1,1′-biphenyl]-4-yl)methanol], a half-maximal response (EC50) required 552 nM and the Emax stood at 68%.

With `Cc1nc(C(F)(F)F)cn1-c1ccc(-c2cccc(S(C)(=O)=O)c2)cc1-n1nncc1-c1ccc(Cl)c(C#N)c1` [Example 41, 2-chloro-5-(1-{3′-(methylsulfonyl)-4-[2-methyl-4-(trifluoromethyl)-1H-imidazol-1-yl]biphenyl-3-yl}-1H-1,2,3-triazol-5-yl)benzonitrile], the EC50 was 1050 nM and the Emax came to 74%.

In the case of `Cc1nc(C(F)(F)F)cn1-c1ccc(-c2cc(F)c(CO)c(S(C)(=O)=O)c2)cc1-c1ccnn1-c1ccc2c(c1)OC(F)(F)O2` [Example 294, (3′-(1-(2,2-difluorobenzo[d][1,3]dioxol-5-yl)-1H-pyrazol-5-yl)-3-fluoro-4′-(2-methyl-4-(trifluoromethyl)-1H-imidazol-1-yl)-5-(methylsulfonyl)biphenyl-4-yl)methanol], the EC50 turned out to be 57 nM and the Emax was 87%.

Take `CCS(=O)(=O)c1cc(-c2ccc(-n3cc(C(F)(F)F)nc3C)c(-n3nncc3-c3ccc(OC(F)(F)F)cc3)c2)cc(F)c1CO` [Example 92, [3-(ethylsulfonyl)-5-fluoro-4′-[2-methyl-4-(trifluoromethyl)-1H-imidazol-1-yl]-3′-(5-{4-[(trifluoromethyl)oxy]phenyl}-1H-1,2,3-triazol-1-yl)biphenyl-4-yl]methanol]: the EC50 turned out to be 502 nM and the Emax worked out at 93%.

As for `Cc1nc(-c2cc(-c3cccc(S(C)(=O)=O)c3)ccc2-n2cc(C(F)(F)F)nc2C)c(-c2cccc(Cl)n2)o1` [Example 441, 5-(6-chloropyridin-2-yl)-2-methyl-4-(4-(2-methyl-4-(trifluoromethyl)-1H-imidazol-1-yl)-3′-(methylsulfonyl)biphenyl-3-yl)oxazole], the EC50 amounted to 1310 nM and the Emax was 38%.

`Cc1nc(-c2cc(-c3cccc(S(C)(=O)=O)c3)ccc2-n2cc(C(F)(F)F)nc2C)c(-c2ccc(Cl)c(F)c2)o1` [Example 498, 5-(4-chloro-3-fluorophenyl)-2-methyl-4-(4-(2-methyl-4-(trifluoromethyl)-1H-imidazol-1-yl)-3′-(methylsulfonyl)biphenyl-3-yl)oxazole]: the response was half-maximal at 87 nM (EC50) and the Emax was 76%.

Regarding `Cc1nc(-c2cc(-c3cc(F)c(CO)c(S(C)(=O)=O)c3)ccc2-n2cc(C(F)(F)F)nc2C)c(-c2ccc(Cl)c(F)c2)o1` [Example 499, (3′-(5-(4-chloro-3-fluorophenyl)-2-methyloxazol-4-yl)-3-fluoro-4′-(2-methyl-4-(trifluoromethyl)-1H-imidazol-1-yl)-5-(methylsulfonyl)biphenyl-4-yl)methanol], the EC50 was 50 nM and the Emax came to 74%.

Take `Cc1nc(C(F)(F)F)cn1-c1ccc(-c2ccc(CNS(C)(=O)=O)c(S(C)(=O)=O)c2)cc1-n1nncc1-c1ccc(OC(F)(F)F)cc1` [Example 87, N-{[3-(methylsulfonyl)-4′-[2-methyl-4-(trifluoromethyl)-1H-imidazol-1-yl]-3′-(5-{4-[(trifluoromethyl)oxy]phenyl}-1H-1,2,3-triazol-1-yl)biphenyl-4-yl]methyl}methanesulfonamide]: the EC50 was determined as 662 nM and the Emax is 89%.

As to `Cc1nc(C(F)(F)F)cn1-c1ccc(-c2cc(F)c(CO)c(S(C)(=O)=O)c2)cc1-n1nncc1-c1ccc(OC(F)(F)F)c(Cl)c1` [Example 78, {3′-(5-{3-chloro-4-[(trifluoromethyl)oxy]phenyl}-1H-1,2,3-triazol-1-yl)-3-fluoro-5-(methylsulfonyl)-4′-[2-methyl-4-(trifluoromethyl)-1H-imidazol-1-yl]biphenyl-4-yl}methanol], the midpoint of the response, the EC50, lay at 102 nM and the Emax is 94%.

The values are drawn from patent US9834542B2, “LXR modulators” (BRISTOL-MYERS SQUIBB COMPANY, priority 2013, dated 2017).
